Our source for the IC50 values is patent publication US8389557B2, “Triazole derivatives useful as Axl inhibitors” (Rigel Pharmaceuticals, Inc., priority 2005, dated 2013).

In the test the target is T1, Axl (Homo sapiens, UniProt P30530).
T1 construct: endogenous in cells; host or cells: HeLa cells
T1 sequence (P30530 26-894): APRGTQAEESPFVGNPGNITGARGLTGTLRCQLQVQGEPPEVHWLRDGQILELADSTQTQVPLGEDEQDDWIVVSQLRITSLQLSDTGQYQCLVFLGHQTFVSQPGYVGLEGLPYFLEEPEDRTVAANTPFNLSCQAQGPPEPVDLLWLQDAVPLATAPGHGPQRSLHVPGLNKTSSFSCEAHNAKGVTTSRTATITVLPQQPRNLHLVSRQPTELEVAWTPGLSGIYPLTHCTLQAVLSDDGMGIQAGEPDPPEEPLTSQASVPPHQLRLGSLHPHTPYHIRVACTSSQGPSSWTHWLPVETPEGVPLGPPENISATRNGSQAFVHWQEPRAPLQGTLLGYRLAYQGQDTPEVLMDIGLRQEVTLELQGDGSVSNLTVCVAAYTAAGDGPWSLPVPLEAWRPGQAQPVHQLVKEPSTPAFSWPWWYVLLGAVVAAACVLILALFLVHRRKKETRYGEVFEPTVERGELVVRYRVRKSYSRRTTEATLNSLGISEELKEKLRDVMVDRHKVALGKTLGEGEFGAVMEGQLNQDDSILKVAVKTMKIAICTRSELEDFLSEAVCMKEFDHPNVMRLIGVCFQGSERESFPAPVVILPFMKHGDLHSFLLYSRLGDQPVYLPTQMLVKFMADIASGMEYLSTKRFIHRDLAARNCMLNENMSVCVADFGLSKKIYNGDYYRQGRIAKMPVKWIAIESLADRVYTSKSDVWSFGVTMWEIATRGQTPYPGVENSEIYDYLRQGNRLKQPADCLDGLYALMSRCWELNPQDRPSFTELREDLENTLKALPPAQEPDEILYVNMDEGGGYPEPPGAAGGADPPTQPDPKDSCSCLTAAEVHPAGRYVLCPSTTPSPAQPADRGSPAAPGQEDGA
Nature of the test: Phospho-Akt in-cell Western assay (inhibition of Axl activity). In kind it is cell-based. On the procedure: The compounds of the invention were tested in the following assay for their ability to inhibit Axl activity.
Phospho-Akt in-Cell Western Assay
• Cell culture plate: 96 well assay plate (Corning 3610), white, clear bottom, tissue-culture treated. • Cells: Hela cells. • Starvation medium: For Axl stimulation: 0.5% FCS (fetal calf serum) in DMEM, plus Axl/Fc (extracellular domain of AXL fused to immunoglobulin Fc region) (R&D, 154-AL) 500 ng/mL. • For EGF (epidermal growth factor) stimulation: 0.5% FCS in DMEM (Dulbecco's modified Eagles medium). • Poly-L-Lysine 0.01% solution (the working solution): 10 μg/ml, dilute In PBS (phosphate buffered saline). • Axl antibody cross-linking: • 1st: Mouse anti-Axl (R&D, MAB154). • 2nd: Biotin-SP-conjugated AffiniPure goat anti-mouse IgG (H+L) (Jackson ImmunoResearch #115-065-003). • Fixing buffer: 4% formaldehyde in PBS. • Wash buffer: 0.1% TritonX-100 in PBS. • Quenching buffer: 3% H2O2, 0.1% Azide in wash buffer, Azide and hydrogen peroxide (H2O2) are added fresh. • Blocking buffer: 5% BSA in TBST (tris buffered saline plus 0.1% Tween 20). • Primary antibody: Rabbit anti-human Phospho-Akt antibody (Cell Signaling 9271): 1×250 diluted in blocking buffer. • Secondary antibody: HRP (horse radish peroxidase)-conjugated Goat anti-Rabbit secondary, stock solution: Jackson ImmunoResearch (Goat anti-Rabbit HRP, #111-035-144) 1:1 diluted in glycerol, store at −20° C. The working solution: 1×2000 dilution of stock in blocking buffer. • Chemiluminescent working solution (Pierce, 37030): SuperSignal ELISA (enzyme linked immunosorbant assay) Pico Chemiluminescent substrate. • Crystal Violet solution: Stock: 2.5% Crystal violet in methanol, filtered and kept at ambient temperature. The working solution: dilute the stock 1:20 with PBS immediately before use. • 10% SDS: working solution: 5% SDS (sodium dodecylsulfate), diluted in PBS Methods: Day 1:
A 96 well TC (tissue culture treated) plate was coated with 10 μg/mL poly-L-Lysine at 37° C. for 30 min, washed twice with PBS, and air-dried for 5 minutes before cells were added. Hela cells were seeded at 10,000 cells/well and the cells were starved in 100 μL starvation medium containing Axl/Fc for 24 hrs.
The cells were pre-treated with test compounds by adding 100 μL of 2× test compound to the starvation medium on the cells. The cells were incubated at 37° C. for 1 hr before stimulation.
The cells were stimulated by Axl-antibody cross-linking as follows: A 5×1st/2nd Axl antibody mixture was made (37.5 μg/mL 1st/100 μg/mL 2nd) in starvation medium and nutated at 4° C. with thorough mixing for 1-2 hours for clustering. The resulting mix was warmed to 37° C. 50 μL of 5× Axl 1st/2nd of antibody cluster was added to the cells and the cells were incubated at 37° C. for 5 min.
After 5 minutes stimulation, the plate was flicked to remove medium and the plate was tapped onto paper towels. Formaldehyde (4.0% in PBS, 100 μL) was added to fix the cells and the cells were incubated at ambient temperature for 20 min without shaking.
The cells were washed with a plate washer buffer to remove the formaldehyde solution. The plate was flicked to removed excess wash buffer and tapped onto paper towels. Quenching buffer (100 μL) was added to each well and the cells were incubated at ambient temperature for 20 minutes without shaking.
The cells were washed with a plate washer buffer to remove the quenching buffer. Blocking buffer (100 μL) was added and the cells were incubated at ambient temperature for at least an hour with gentle shaking.
The cells were washed with a plate washer buffer and diluted primary antibody (50 μL) was added to each well (blocking buffer was added to the negative control wells instead). The plates were incubated overnight at 4° C. with gentle shaking.
The wash buffer was removed, diluted secondary antibody (100 μL) was added, and the cells were incubated at ambient temperature for 1 hour with gentle shaking. […]

Where [1] appears, read: inhibition of Axl activity, phospho-Akt in-cell Western assay, Table 1.
Setting [2] is: inhibition of Axl activity, Table 1.
Setting [3] is: Table 3, Hela cells, Axl antibody cross-linking stimulation, phospho-Akt chemiluminescence.
Setting [4] is: Table 7, Hela cells, Axl antibody cross-linking stimulation, phospho-Akt chemiluminescence.

Turning to `CC(C)(C)Oc1ccc(C(=O)n2nc(Nc3ccccc3)nc2N)cc1` [compound 341, 5-amino-1-(4-(tert-butoxy)phenyl)carbonyl-3-(phenylamino)-1H-1,2,4-triazole], under setting [1], the 50% inhibitory concentration (IC50) (usually the concentration that gives 50% inhibition) was in the range of 1 to 10 µM.

For `CC(=O)Oc1ccc(C(=O)n2nc(Nc3ccc4c(c3)OCCO4)nc2N)cc1` [compound 109, 1-(4-(Acetoxy)phenyl)carbonyl-5-amino-3-(1,4-benzodioxan-6-yl)amino-1H-1,2,4-triazole], under setting [2], the IC50 was 1 to 10 µM.

In turn, `CN(C)c1ccc(C(=O)n2nc(Nc3ccc(OCCn4ccnc4)cc3)nc2N)cc1` [compound 373, 5-amino-1-(4-(dimethylamino)phenyl)carbonyl-3-[4-[2-(imidazol-1-yl)ethoxy]phenylamino]-1H-1,2,4-triazole] registered a concentration for half-maximal inhibition (IC50) under setting [1] of less than 1 µM.

`Cc1cccc(C(=O)n2nc(Nc3cccc(OCC(=O)NC4CCCCC4)c3)nc2N)c1` [compound 165, 5-amino-3-[3-[cyclohexylaminocarbonylmethoxy]phenylamino]-1-(3-(methyl)phenyl)carbonyl-1H-1,2,4-triazole] showed a 50% inhibitory concentration (IC50) under setting [2] greater than 20 µM.

In turn, `Nc1nc(Nc2ccc(N3CCOCC3)cc2)nn1C(=O)c1ccc(S(N)(=O)=O)cc1` [compound 70, 5-amino-1-(4-(aminosulfonyl)phenyl)carbonyl-3-(4-(morpholin-4-yl)phenylamino)-1H-1,2,4-triazole] had an IC50 under setting [2] greater than 20 µM.

`CC(C)Oc1ccc(Nc2nc(N)n(C(=O)c3ccc4c(c3)NC(=O)C(C)(C)O4)n2)cc1` [compound 65, 5-amino-1-(2,2-dimethyl-2H-benzo[b][1,4]oxazin-3(4H)-on-6-yl)carbonyl-3-(4-(iso-propoxy)phenyl)amino-1H-1,2,4-triazole]: the half-maximal inhibitory concentration (IC50) under setting [3] was 1 to 10 µM.

In the case of `Nc1nc(Nc2ccc3c(c2)OCCO3)nn1C(=O)c1ccccc1Cl` [compound 94, 5-amino-1-(2-(chloro)phenyl)carbonyl-3-(1,4-benzodioxan-6-yl)amino-1H-1,2,4-triazole], under setting [2], the IC50 is greater than 20 µM.

Take `Nc1nc(Nc2ccc(OCCN3CCCC3)cc2)nn1C(=S)Nc1c(F)cccc1F` [compound 326, 5-amino-N-(2,6-difluorophenyl)-3-[4-[2-(pyrrolidin-1-yl)ethoxy]phenylamino]-1H-1,2,4-triazole-1-carbothioamide]: the IC50 under setting [4] is less than 1 µM.

In turn, `Nc1nc(Nc2ccc(OCCn3ccnc3)cc2)n(C(=O)c2ccc3cc[nH]c3c2)n1` [compound 376, 3-amino-1-(1H-indol-6-yl)carbonyl-5-[4-[2-(imidazol-1-yl)ethoxy]phenylamino]-1H-1,2,4-triazole] came in with an IC50 (Table 4, Hela cells, Axl antibody cross-linking stimulation, phospho-Akt chemiluminescence) of less than 1 µM.

The compound `Cc1cccc(C(=O)n2nc(Nc3ccc4c(c3)NCCO4)nc2N)c1` [compound 215, 5-amino-3-[(3,4-dihydrobenzo[1,4]oxazin-6-yl)amino]-1-(3-methylphenyl)carbonyl-1H-1,2,4-triazole] registered a half-maximal inhibitory concentration (IC50) (Table 5, Hela cells, Axl antibody cross-linking stimulation, phospho-Akt chemiluminescence) greater than 20 µM.

For `Nc1nc(Nc2ccc(OCCN3CCCC3)cc2)nn1C(=O)c1c(F)cccc1F` [compound 289, 5-amino-1-(2,6-difluorophenyl)carbonyl-3-[4-[2-(pyrrolidin-1-yl)ethoxy]phenylamino]-1H-1,2,4-triazole], the IC50 under setting [1] was greater than 20 µM.

With `COc1cccc(C(=O)n2nc(Nc3ccc(N4CCOCC4)cc3)nc2N)c1` [compound 81, 5-amino-1-(3-(methoxy)phenyl)carbonyl-3-(4-(morpholin-4-yl)phenylamino)-1H-1,2,4-triazole], under setting [2], the IC50 is 1 to 10 µM.

Regarding `Nc1nc(Nc2ccc(OCCN3CCCC3)cc2)nn1C(=O)c1ccc(-n2cccc2)cc1` [compound 282, 5-amino-1-(4-(pyrrol-1-yl)phenyl)carbonyl-3-[4-[2-(pyrrolidin-1-yl)ethoxy]phenylamino]-1H-1,2,4-triazole], under setting [1], the IC50 is less than 1 µM.

Compound `CN(C)c1ccc(C(=O)n2nc(Nc3ccc(OCCN4CCCCC4)cc3)nc2N)cc1` [compound #2, 5-Amino-1-(4-(dimethylamino)phenyl)carbonyl-3-[4-[2-(piperidin-1-yl)ethoxy]phenylamino]-1H-1,2,4-triazole] came in with an IC50 under setting [1] of less than 1 µM.

Compound `CC1(C)Oc2ccc(C(=O)n3nc(Nc4ccc(N5CCCC5)cc4)nc3N)cc2NC1=O` [compound 295, 5-amino-1-(2,2-dimethyl-2H-benzo[b][1,4]oxazin-3(4H)-on-6-yl)carbonyl-3-[4-(pyrrolidin-1-yl)phenylamino]-1H-1,2,4-triazole] came in with a half-inhibitory concentration (IC50) under setting [3] of 1 to 10 µM.

For the compound `CC(C)(C)c1ccc(C(=O)n2nc(Nc3cccc(-c4cnco4)c3)nc2N)cc1` [compound 263, 5-amino-1-(4-(tert-butyl)phenyl)carbonyl-3-[3-(1,3-oxazol-5-yl)phenylamino]-1H-1,2,4-triazole], under setting [1], the IC50 was 1 to 10 µM.

In turn, `Nc1nc(Nc2ccc(OCCN3CCCC3)cc2)nn1C(=O)c1ccc2cc[nH]c2c1` [compound #5, 5-Amino-1-(1H-indol-6-yl)carbonyl-3-[4-[2-(pyrrolidin-1-yl)ethoxy]phenylamino]-1H-1,2,4-triazole] gave a half-maximal inhibitory concentration (IC50) under setting [3] of less than 1 µM.

The compound `Nc1nc(Nc2ccc(OCCN3CCCCC3)cc2)nn1C(=O)NC1CCCCC1` [compound 42, 5-amino-N-cyclohexyl-3-[4-[2-(piperidin-1-yl)ethoxy]phenylamino]-1H-1,2,4-triazole-1-carboxamide] had a half-inhibitory concentration (IC50) under setting [4] of 1 to 10 µM.

`Cc1ccc(C(=O)n2nc(Nc3ccccc3)nc2N)cc1` [compound 137, 5-amino-1-(4-(methyl)phenyl)carbonyl-3-phenylamino-1H-1,2,4-triazole] gave an IC50 under setting [2] greater than 20 µM.

The compound `Nc1nc(Nc2ccc3c(c2)OCCO3)nn1C(=O)c1cccc(OCCN2CCOCC2)c1` [compound 150, 5-amino-3-(1,4-benzodioxan-6-yl)amino-1-[3-[2-(morpholin-4-yl)ethoxy]phenyl]carbonyl-1H-1,2,4-triazole] had an IC50 under setting [2] greater than 20 µM.

In the case of `CCOc1cccc(C(=O)n2nc(Nc3ccc4c(c3)OCCO4)nc2N)c1` [compound 128, 5-amino-1-(3-(ethoxy)phenyl)carbonyl-3-(1,4-benzodioxan-6-yl)amino-1H-1,2,4-triazole], the half-maximal inhibitory concentration (IC50) under setting [2] is greater than 20 µM.
